Laboratory results: US20100280004A1, “SMALL MOLECULE CORRECTORS OF DELTAF508 CFTR TRAFFICKING” (The University of British Columbia and The Royal …, priority 2007, published 2010)

How the values were obtained:
ΔF508 CFTR [1] = target: T1, ΔF508 CFTR (Homo sapiens, UniProt P13569, DEL508-508); assay: Screening protocol: surface expression of 3HA-tagged ΔF508 CFTR in BHK cells (anti-HA immunofluorescence plate assay); type: cell-based; set-up: expressed in transfected cells; host or cells: BHK cells; conditions: for EC50: concentrations between 100 μM and 1 pM, FIG. 2
T1 sequence (P13569 with tags, fused parts or gaps DEL508-508): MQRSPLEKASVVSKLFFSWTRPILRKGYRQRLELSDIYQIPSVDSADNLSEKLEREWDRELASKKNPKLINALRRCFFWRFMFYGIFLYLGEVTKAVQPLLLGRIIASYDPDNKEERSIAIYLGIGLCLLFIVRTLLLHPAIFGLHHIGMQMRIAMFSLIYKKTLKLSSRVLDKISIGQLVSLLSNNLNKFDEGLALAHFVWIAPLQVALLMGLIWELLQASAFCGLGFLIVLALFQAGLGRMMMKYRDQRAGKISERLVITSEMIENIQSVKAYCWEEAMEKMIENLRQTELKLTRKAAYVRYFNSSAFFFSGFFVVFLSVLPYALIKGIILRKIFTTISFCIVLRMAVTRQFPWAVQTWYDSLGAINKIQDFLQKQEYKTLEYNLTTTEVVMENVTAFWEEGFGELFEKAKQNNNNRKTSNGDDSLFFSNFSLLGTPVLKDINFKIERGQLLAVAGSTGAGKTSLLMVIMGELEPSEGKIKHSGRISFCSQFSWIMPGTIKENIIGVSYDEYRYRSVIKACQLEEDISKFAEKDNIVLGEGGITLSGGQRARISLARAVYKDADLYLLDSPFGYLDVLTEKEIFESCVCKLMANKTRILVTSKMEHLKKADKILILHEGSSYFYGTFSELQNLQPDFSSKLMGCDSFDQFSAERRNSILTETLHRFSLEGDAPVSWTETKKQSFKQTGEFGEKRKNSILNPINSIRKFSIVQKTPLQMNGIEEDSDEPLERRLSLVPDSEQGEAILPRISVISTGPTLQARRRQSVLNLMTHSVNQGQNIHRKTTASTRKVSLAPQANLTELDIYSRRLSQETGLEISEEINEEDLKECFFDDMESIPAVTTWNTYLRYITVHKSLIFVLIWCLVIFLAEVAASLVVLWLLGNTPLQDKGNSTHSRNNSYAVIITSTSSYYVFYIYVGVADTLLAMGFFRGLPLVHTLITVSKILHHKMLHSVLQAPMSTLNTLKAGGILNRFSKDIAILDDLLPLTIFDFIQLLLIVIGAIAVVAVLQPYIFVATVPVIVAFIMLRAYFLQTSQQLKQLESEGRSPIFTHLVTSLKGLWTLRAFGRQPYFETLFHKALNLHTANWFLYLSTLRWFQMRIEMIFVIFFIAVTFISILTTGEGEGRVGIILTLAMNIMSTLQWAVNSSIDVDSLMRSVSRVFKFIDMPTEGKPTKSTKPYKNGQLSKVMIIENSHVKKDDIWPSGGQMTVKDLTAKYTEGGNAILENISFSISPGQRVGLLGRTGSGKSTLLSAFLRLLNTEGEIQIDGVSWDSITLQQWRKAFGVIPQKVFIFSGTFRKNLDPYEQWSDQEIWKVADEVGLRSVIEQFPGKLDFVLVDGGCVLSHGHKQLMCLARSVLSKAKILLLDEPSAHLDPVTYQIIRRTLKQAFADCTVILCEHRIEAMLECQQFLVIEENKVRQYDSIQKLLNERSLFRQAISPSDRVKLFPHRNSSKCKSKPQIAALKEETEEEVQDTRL
Procedure: BHK cells expressing 3HA-tagged ΔF508 CFTR between passages 5-8 were seeded in 96-well plates (Corning half area, black-sided, clear bottom) at 15,000 cells per well and incubated with culture medium for 24 h at 37° C. […] The remaining 16 wells on each plate were used for control conditions. Cells were fixed in a 2% Para-formaldehyde solution, washed with PBS, and blocked with PBS containing 5% fetal bovine serum (FBS) for 1 h at 4° C.
Blocking solution was replaced with 15 μl of primary antibody solution containing 1% FBS and mouse monoclonal anti-HA antibody (1:150 dilution, Sigma) in PBS. The plates were sealed and left at 4° C. overnight. After three washes with 100 μl PBS, cells were incubated for 1 h with 15 μl of secondary antibody solution containing 1% FBS and anti-mouse IgG conjugated with FITC (1:100 dilution, Sigma) in PBS. Cells were again washed three times with 100 μl of PBS and analyzed in a plate reader (Analyst™ HT96.384, Biosystems) (488 nm excitation, 510 nm emission). Hits were defined as those compounds giving fluorescence at least three standard deviations higher than untreated controls. The mean fluorescence of four untreated wells was used as the background signal when calculating deviations of the 80 compound-treated wells. Hits were then cherry-picked into reservoir plates and re-tested in duplicate using the same assay. Compounds that consistently give signals that were three standard deviations above untreated controls and were not intrinsically fluorescent were considered validated and studied further.

ΔF508 CFTR [2] = target: T1, ΔF508 CFTR; assay: Immunoblotting analysis of biosynthetic processing of ΔF508-CFTR in BHK cells; type: cell-based; set-up: expressed in transfected cells; host or cells: BHK cells
Procedure: The effects of the latonduines on the biosynthetic processing of ΔF508-CFTR, latonduine treatment was assayed by immunoblotting analysis (FIGS. 4A and B).
Cell lysates were quantitated by Bradford assay (BioRad) and separated by SDS-PAGE (6% polyacrylamide gels) and analyzed by Western blotting. Western blots were blocked using 5% skimmed milk in PBS, then were probed overnight at 4° C. with a primary anti-CFTR antibody at a dilution of 1:1000 monoclonal mouse antibody (Chemicon). The blots were washed four times in PBS before the addition of the secondary HRP-conjugated anti-mouse antibody, at a dilution of 1:5000 (Amersham) for one hour at room temperature. The blots were washed five times in PBS and probed for chemiluminescence (Pierce). All samples were run with equal protein loading as determined using the Bradford assay (Biorad). Densitometry of the immunoblots were performed using the ImageJ program.

panel of protein kinases = assay: Enzyme inhibition against a panel of protein kinases; type: biochemical
F508del-CFTR = target: T2, F508del-CFTR (Homo sapiens, UniProt P13569, DEL508-508); assay: Immunofluorescence/confocal microscopy: cell surface CFTR (overlap with wheat germ agglutinin) in BHK cells expressing F508del-CFTR; type: cell-based; conditions: 10 μM, 24 hours, FIG. 3
T2 construct: expressed in transfected cells; host or cells: BHK cells
T2 sequence (P13569 with tags, fused parts or gaps DEL508-508): as above
Procedure: BHK cells expressing F508del-CFTR were treated with 10 μM of the latonduines for 24 hours and then immunostained for CFTR and imaged by confocal microscopy (photomicrograph data not shown).
Cells were seeded onto 1 cm diameter glass coverslips (5000 per coverslip) and incubated overnight, then treated with compound and fixed in 2% Para formaldehyde. After fixation, cells were blocked using (5% FBS in PBS) for 1 hour at 4° C. The coverslips were then washed in PBS and incubated with primary antibody solution (1% FBS in PBS with 1:200 dilution mouse anti-CFTR antibody (Chemicon) for 2 hours at room temperature (0.05% Tween-20 was added to the blocking solution when staining of intracellular CFTR was required). Coverslips were washed four times in PBS and probed with secondary antibody solution (1% FBS in PBS plus goat anti-mouse Alexa 568 conjugated antibody at 1:1000 dilution) for 1 h at room temperature in the dark. The cells were then washed three times with PBS. The coverslips were then mounted on slides using an antifade mounting solution (Permamount) for confocal microscopy.
Analysis was done using the ImageJ system using 120-150 cells per sample in six fields. […]
The cell surface was identified using wheat germ agglutinin and the amount of cell surface CFTR measured (FIG. 3). […]

[3] = system: panel of human cancer lines; assay: Cytotoxicity assays against a panel of human cancer lines; type: cell-based
ΔF508 CFTR [4] = target: T1, ΔF508 CFTR; assay: Iodide efflux assay in CFBE cells expressing ΔF508-CFTR; type: cell-based; set-up: endogenous in cells; host or cells: CFBE cells (human lung epithelial cells from a CF patient); conditions: CFBE cells (human lung epithelia of a cystic fibrosis patient); FIG. 5B
Procedure: Experiments were performed by hand or with a robotic liquid handling system (BioRobot 8000, Qiagen, USA) using Qiagen 4.1 software. Cells were cultured in 24-well plates until they reached confluence in order to perform parallel experiments and comparison analysis. After treatment or not with a test compound, the medium of each well was replaced with 1 ml of iodide loading buffer (in mM: 136 NaI, 3 KNO3, 2 Ca(NO3)2, 11 glucose and 20 Hepes pH 7.4) for 1 hour at 37° C. to permit the I− to reach equilibrium. At the beginning of each experiment, the loading buffer was removed by aspiration and cells were washed eight times with efflux buffer (same as loading buffer except that NaI was replaced with 136 mM NaNO3) to remove extracellular I^− in each well. The loss of intracellular I^− was determined by removing the medium with efflux buffer every 1 min for up to 11 min. The first four aliquots were recovered at 1-minute intervals in an empty 24-well plate and used to establish a stable baseline in efflux buffer alone. […] The iodide concentration of each aliquot was determined using an iodide-sensitive electrode (Orion Research Inc., Boston, Mass., USA or Ecomet) and converted to iodide content (i.e. the amount of iodide released during the 1 min interval). […]

| SMILES | response in the screening protocol (surface expression of ΔF508 CFTR) (ΔF508 CFTR [1]; 24-hour treatment, 10 μM, FIGS. 1 and 6) | surface expression, % of that observed in cells expressing wild-type CFTR (ΔF508 CFTR [2]; F508del-CFTR, stated in Example III) | share of F508del-CFTR that was complex-glycosylated (ΔF508 CFTR [2]; cells treated with the compound, densitometry of immunoblot) | EC50 (ΔF508 CFTR [1]) | enzyme inhibition (panel of protein kinases) | cell surface CFTR, % of the amount of wild-type CFTR plasma membrane signal (F508del-CFTR) | cytotoxicity [3] | functional ΔF508-CFTR ion channels, iodide efflux (ΔF508 CFTR [4]) |
| --- | --- | --- | --- | --- | --- | --- | --- | --- |
| Nc1ncc2c(n1)-c1c([nH]c(Br)c1Br)C(=O)NC2 [isolatonduine] | positive response |  |  |  |  |  |  |  |
| Nc1ncc2c(n1)CNC(=O)c1[nH]c(Br)c(Br)c1-2 [latonduine A] |  | about 25% | Up to 30% | 0.4 nM | inactive | 29% | inactive |  |
| CCOC(=O)c1nc(N)nc2c1-c1c([nH]c(Br)c1Br)C(=O)NC2 [latonduine B ethyl ester] |  |  |  | 0.5 nM | inactive | 51% | inactive | can act as correctors of ΔF508-CFTR giving functional ion channels on the cell surface |
| COC(=O)c1nc(N)nc2c1-c1c([nH]c(Br)c1Br)C(=O)NC2 [latonduine B methyl ester] |  |  |  | 25 nM | inactive |  | inactive |  |
| Nc1nc2c(c(C(=O)O)n1)-c1c([nH]c(Br)c1Br)C(=O)NC2 [latonduine B] |  |  |  |  | inactive |  | inactive |  |
